Source: patent US12077503B2, “Substituted cyclic amides and their use as herbicides” (FMC CORPORATION, priority 2015, dated 2024)

Key:
Format in all cases: in vivo
[1] = tested on: barnyardgrass (Echinochloa crus-galli); assay: Test G Pre-Emergence Protocol; conditions: Echinochloa crus-galli, pre-emergence, 312 h, evaluated after 13 days; for pest or weed control at 15.625 g/ha: 15.625 g ai/ha, read-out: Barnyard grass damage rating (100=total damage to plant; 0=no damage to plant); for pest or weed control at 62.5 g/ha: 62.5 g ai/ha, 100=total damage to plant, 0=no damage to plant, read-out: plant damage rating, Barnyardgrass; for pest or weed control at 250 g/ha: 250 g ai/ha, read-out: Barnyardgrass damage rating (100=total damage to plant; 0=no damage to plant)
Procedure, shortened: (§1)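 Visual injury (0–100) at day 13 after a single pre-emergence spray. Rates: 15.625, 62.5, 250 g/ha in acetone–water 50:50 with 0.5% Tween 20. Growth conditions: 24/16° C, 14 h light, 65% humidity.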

corn (Zea mays) [2] = assay: Test G Pre-Emergence Protocol; conditions: Zea mays, pre-emergence, 312 h, evaluated after 13 days; for plant injury at 15.625 g/ha: 15.625 g ai/ha; for plant injury at 15.625 g/ha / plant injury at 250 g/ha: read-out: Corn damage rating (100=total damage to plant; 0=no damage to plant); for plant injury at 62.5 g/ha: 62.5 g ai/ha, 100=total damage to plant, 0=no damage to plant, read-out: plant damage rating, Corn; for plant injury at 250 g/ha: 250 g ai/ha
Procedure, shortened: as §1

[3] = tested on: giant foxtail (Setaria faberi); assay: Test G Pre-Emergence Protocol; conditions: Setaria faberi, pre-emergence, 312 h, evaluated after 13 days; for pest or weed control at 15.625 g/ha: 15.625 g ai/ha; for pest or weed control at 15.625 g/ha / pest or weed control at 250 g/ha: read-out: Foxtail, Giant damage rating (100=total damage to plant; 0=no damage to plant); for pest or weed control at 62.5 g/ha: 62.5 g ai/ha, 100=total damage to plant, 0=no damage to plant, read-out: plant damage rating, Foxtail, Giant; for pest or weed control at 250 g/ha: 250 g ai/ha
Procedure, shortened: as §1

[4] = tested on: ivy-leaved morning glory (Ipomoea hederacea); assay: Test G Pre-Emergence Protocol; conditions: Ipomoea, pre-emergence, 312 h, evaluated after 13 days; for pest or weed control at 15.625 g/ha: 15.625 g ai/ha, read-out: Morning-glory, Ivy-leaved damage rating (100=total damage to plant; 0=no damage to plant); for pest or weed control at 62.5 g/ha: 62.5 g ai/ha, 100=total damage to plant, 0=no damage to plant, read-out: plant damage rating, Morningglory, Ivy-leaved; for pest or weed control at 250 g/ha: 250 g ai/ha, read-out: Morningglory, Ivy-leaved damage rating (100=total damage to plant; 0=no damage to plant)
Procedure, shortened: as §1

[5] = tested on: redroot pigweed (Amaranthus retroflexus); assay: Test G Pre-Emergence Protocol; conditions: Amaranthus retroflexus, pre-emergence, 312 h, evaluated after 13 days; for pest or weed control at 15.625 g/ha: 15.625 g ai/ha; for pest or weed control at 15.625 g/ha / pest or weed control at 250 g/ha: read-out: Pigweed, Redroot damage rating (100=total damage to plant; 0=no damage to plant); for pest or weed control at 62.5 g/ha: 62.5 g ai/ha, 100=total damage to plant, 0=no damage to plant, read-out: plant damage rating, Pigweed, Redroot; for pest or weed control at 250 g/ha: 250 g ai/ha
Procedure, shortened: as §1

[6] = tested on: velvetleaf (Abutilon theophrasti); assay: Test G Pre-Emergence Protocol; conditions: Abutilon theophrasti, pre-emergence, 312 h, evaluated after 13 days; for pest or weed control at 15.625 g/ha: 15.625 g ai/ha; for pest or weed control at 15.625 g/ha / pest or weed control at 250 g/ha: read-out: Velvetleaf damage rating (100=total damage to plant; 0=no damage to plant); for pest or weed control at 62.5 g/ha: 62.5 g ai/ha, 100=total damage to plant, 0=no damage to plant, read-out: plant damage rating, Velvetleaf; for pest or weed control at 250 g/ha: 250 g ai/ha
Procedure, shortened: as §1

[7] = tested on: barnyardgrass (Echinochloa crus-galli); assay: Test G Post-Emergence Protocol; conditions: Echinochloa crus-galli, post-emergence, 312 h; for pest or weed control at 15.625 g/ha: 15.625 g ai/ha, evaluated after 13 days (100=total damage to plant; 0=no damage to plant), read-out: Barnyardgrass damage rating; for pest or weed control at 62.5 g/ha: 62.5 g ai/ha, read-out: Barnyardgrass damage rating (100=total damage to plant; 0=no damage to plant); for pest or weed control at 62.5 g/ha / pest or weed control at 250 g/ha: evaluated after 13 days; for pest or weed control at 250 g/ha: 250 g ai/ha, read-out: damage to plant, Barnyardgrass (100=total damage to plant; 0=no damage to plant)
Procedure, shortened: (§2)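 Values are percent visual injury at 13 days after treatment (0 none, 100 total). Treatment was a post-emergence spray at 15.625, 62.5 or 250 g/ha on 8-day-old pot plants kept at 24/16 °C.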

corn (Zea mays) [8] = assay: Test G Post-Emergence Protocol; conditions: Zea mays, post-emergence, 312 h; for plant injury at 15.625 g/ha: 15.625 g ai/ha, evaluated after 13 days (100=total damage to plant; 0=no damage to plant), read-out: Corn damage rating; for plant injury at 62.5 g/ha: 62.5 g ai/ha, read-out: Corn damage rating (100=total damage to plant; 0=no damage to plant); for plant injury at 62.5 g/ha / plant injury at 250 g/ha: evaluated after 13 days; for plant injury at 250 g/ha: 250 g ai/ha, read-out: damage to plant, Corn (100=total damage to plant; 0=no damage to plant)
Procedure, shortened: as §2

[9] = tested on: giant foxtail (Setaria faberi); assay: Test G Post-Emergence Protocol; conditions: Setaria faberi, post-emergence, 312 h; for pest or weed control at 15.625 g/ha: 15.625 g ai/ha, evaluated after 13 days (100=total damage to plant; 0=no damage to plant), read-out: Foxtail, Giant damage rating; for pest or weed control at 62.5 g/ha: 62.5 g ai/ha, read-out: Foxtail, Giant damage rating (100=total damage to plant; 0=no damage to plant); for pest or weed control at 62.5 g/ha / pest or weed control at 250 g/ha: evaluated after 13 days; for pest or weed control at 250 g/ha: 250 g ai/ha, read-out: damage to plant, Foxtail, Giant (100=total damage to plant; 0=no damage to plant)
Procedure, shortened: as §2

[10] = tested on: ivy-leaved morning glory (Ipomoea hederacea); assay: Test G Post-Emergence Protocol; conditions: Ipomoea, post-emergence, 312 h; for pest or weed control at 15.625 g/ha: 15.625 g ai/ha, evaluated after 13 days (100=total damage to plant; 0=no damage to plant), read-out: Morningglory, Ivy-leaved damage rating; for pest or weed control at 62.5 g/ha: 62.5 g ai/ha, read-out: Morningglory, Ivy-leaved damage rating (100=total damage to plant; 0=no damage to plant); for pest or weed control at 62.5 g/ha / pest or weed control at 250 g/ha: evaluated after 13 days; for pest or weed control at 250 g/ha: 250 g ai/ha, read-out: damage to plant, Morningglory, Ivy-leaved (100=total damage to plant; 0=no damage to plant)
Procedure, shortened: as §2

[11] = tested on: redroot pigweed (Amaranthus retroflexus); assay: Test G Post-Emergence Protocol; conditions: Amaranthus retroflexus, post-emergence, 312 h; for pest or weed control at 15.625 g/ha: 15.625 g ai/ha, evaluated after 13 days (100=total damage to plant; 0=no damage to plant), read-out: Pigweed, Redroot damage rating; for pest or weed control at 62.5 g/ha: 62.5 g ai/ha, read-out: Pigweed, Redroot damage rating (100=total damage to plant; 0=no damage to plant); for pest or weed control at 62.5 g/ha / pest or weed control at 250 g/ha: evaluated after 13 days; for pest or weed control at 250 g/ha: 250 g ai/ha, read-out: damage to plant, Pigweed, Redroot (100=total damage to plant; 0=no damage to plant)
Procedure, shortened: as §2

[12] = tested on: velvetleaf (Abutilon theophrasti); assay: Test G Post-Emergence Protocol; conditions: Abutilon theophrasti, post-emergence, 312 h; for pest or weed control at 15.625 g/ha: 15.625 g ai/ha, evaluated after 13 days (100=total damage to plant; 0=no damage to plant), read-out: Velvetleaf damage rating; for pest or weed control at 62.5 g/ha: 62.5 g ai/ha, read-out: Velvetleaf damage rating (100=total damage to plant; 0=no damage to plant); for pest or weed control at 62.5 g/ha / pest or weed control at 250 g/ha: evaluated after 13 days; for pest or weed control at 250 g/ha: 250 g ai/ha, read-out: damage to plant, Velvetleaf (100=total damage to plant; 0=no damage to plant)
Procedure, shortened: as §2

Compound	pest or weed control at 15.625 g/ha [1]	pest or weed control at 62.5 g/ha [1]	pest or weed control at 250 g/ha [1]	plant injury at 15.625 g/ha (corn (Zea mays) [2])	plant injury at 62.5 g/ha (corn (Zea mays) [2])	plant injury at 250 g/ha (corn (Zea mays) [2])	pest or weed control at 15.625 g/ha [3]	pest or weed control at 62.5 g/ha [3]	pest or weed control at 250 g/ha [3]	pest or weed control at 15.625 g/ha [4]	pest or weed control at 62.5 g/ha [4]	pest or weed control at 250 g/ha [4]	pest or weed control at 15.625 g/ha [5]	pest or weed control at 62.5 g/ha [5]	pest or weed control at 250 g/ha [5]	pest or weed control at 15.625 g/ha [6]	pest or weed control at 62.5 g/ha [6]	pest or weed control at 250 g/ha [6]	pest or weed control at 15.625 g/ha [7]	pest or weed control at 62.5 g/ha [7]	also measured
Cc1c(Cl)ccc([C@@H]2CN(C)C(=O)[C@H]2C(=O)Nc2cccc(F)c2F)c1F (racemic) [Compound 1473]	20%	40%	70%	0%	0%	10%	50%	70%	80%	10%	0%	10%	0%	0%	70%	0%	0%	0%	40%	40%	pest or weed control at 250 g/ha [7]: 50%; plant injury at 15.625 g/ha (corn (Zea mays) [8]): 20%; plant injury at 62.5 g/ha (corn (Zea mays) [8]): 10%; plant injury at 250 g/ha (corn (Zea mays) [8]): 10%; pest or weed control at 15.625 g/ha [9]: 60%; pest or weed control at 62.5 g/ha [9]: 70%; pest or weed control at 250 g/ha [9]: 70%; pest or weed control at 15.625 g/ha [10]: 0%; pest or weed control at 62.5 g/ha [10]: 10%; pest or weed control at 250 g/ha [10]: 20%; pest or weed control at 15.625 g/ha [11]: 0%; pest or weed control at 62.5 g/ha [11]: 0%; pest or weed control at 250 g/ha [11]: 10%; pest or weed control at 15.625 g/ha [12]: 0%; pest or weed control at 62.5 g/ha [12]: 0%; pest or weed control at 250 g/ha [12]: 10%
COc1cc([C@@H]2CN(C)C(=O)[C@H]2C(=O)Nc2cccc(F)c2F)ccc1Cl (racemic) [Compound 1474]	10%	70%	80%	0%	0%	40%	50%	80%	90%	10%	0%	10%	0%	0%	20%	0%	0%	0%	20%	50%	pest or weed control at 250 g/ha [7]: 60%; plant injury at 15.625 g/ha (corn (Zea mays) [8]): 10%; plant injury at 62.5 g/ha (corn (Zea mays) [8]): 30%; plant injury at 250 g/ha (corn (Zea mays) [8]): 40%; pest or weed control at 15.625 g/ha [9]: 60%; pest or weed control at 62.5 g/ha [9]: 70%; pest or weed control at 250 g/ha [9]: 70%; pest or weed control at 15.625 g/ha [10]: 40%; pest or weed control at 62.5 g/ha [10]: 50%; pest or weed control at 250 g/ha [10]: 50%; pest or weed control at 15.625 g/ha [11]: 30%; pest or weed control at 62.5 g/ha [11]: 0%; pest or weed control at 250 g/ha [11]: 30%; pest or weed control at 15.625 g/ha [12]: 10%; pest or weed control at 62.5 g/ha [12]: 0%; pest or weed control at 250 g/ha [12]: 20%
